This is an account of results in patent US20160152607A1, “MALEIC ACID DERIVATIVE, PRODUCTION METHOD FOR SAME, AND ANTI-CANCER COMPOSITION COMPRISING SAME” (Medicinal Bioconvergence Research Center, priority 2013, published 2016).

What all share (format): cell-based
One series has as its system H460 cells. Description: MTT cytotoxicity on lung cancer cells (H460). Particulars: medium with 0.5% serum. The protocol: H460 cells were dispensed in medium containing 0.5% serum at 1×10^4 per well, and were treated with the compounds. MTT solution (5 mg/mL) was diluted 10-fold, and dispensed at 10 μl per well, followed by culturing for 30 minutes. The precipitate was dissolved in 100 μl of DMSO, and the absorbance was measured using a microplate reader (Sunrise, TECAN) at a wavelength of […].

Series [1] in a line: Cytotoxicity on normal cell line VERO (cell counting kit-8, WST-8). The note with it: African green monkey, VERO cells (kidney cell line), read-out: Cytotoxicity CC50 (μM), ERO. The protocol: (§1) For the normal cell lines, five cell lines, VERO (African green monkey kidney cell line), HFL-1 (human embryonic lung cell line), L929 (NCTC clone 929, mouse fibroblast cell line), NIH 3T3 (mouse embryonic fibroblast cell line), and CHO-K1 (Chinese hamster overy cell line) were used.
(§2) For the cytotoxicity, all the cells were seeded at 1×10^4, and for a generalized test for investigating cell viability, the CC50 value, which is the concentration of a compound killing 50% of cells, was measured by cell counting kit-8 assay using tetrazolium salt named WST-8 displaying a pale yellow color.

Series [2] is described as follows: Cytotoxicity on normal cell line HFL-1 (cell counting kit-8, WST-8). The note with it: human, HFL-1 cells (embryonic lung cell line); HFL-1 normal cell line; read-out: Cytotoxicity CC50 (μM), FL-1. Here is the method:
as §1, §2
(In general: Tetrazolium dyes change colour on reduction, which living cells bring about.)

Series [3] can be described thus: Cytotoxicity on normal cell line L929 (cell counting kit-8, WST-8). The note with it: mouse, L929 cells (NCTC clone 929, fibroblast cell line). The protocol: as §1, §2
A short description of series [4]: Cytotoxicity on normal cell line NIH 3T3 (cell counting kit-8, WST-8). Particulars: mouse, NIH 3T3 cells (embryonic fibroblast cell line); NIH 3T3 normal cell line. The protocol:
as §1, §2

Series [5] is described as follows: Cytotoxicity on normal cell line CHO-K1 (cell counting kit-8, WST-8). Particulars: Chinese hamster, CHO-K1 cells (ovary cell line). Here is the method:
as §1, §2

As for `Cc1ccnc(NC(=O)/C=C\C(=O)N2CCCCC2)c1` [Example 1-14, (Z)—N-(4-methylpyridin-2-yl)-4-oxo-4-(piperidin-1-yl)but-2-enamide], in the series on H460 cells, the “Inhibition of proliferation of H460 cells (MTT, FIG. 1)” value is “significantly inhibited the proliferation of H460 cells in a dose-dependent manner”.

In general, CC50 refers to the concentration that lowers cell viability or growth by half. Consider `Cc1ccnc(NC(=O)/C=C\C(=O)N2CCOCC2)c1` [Example 1-20, (Z)—N-(4-methylpyridin-2-yl)-4-morpholino-4-oxobut-2-enamide], for which, in the series on H460 cells, the “Inhibition of proliferation of H460 cells (MTT, FIG. 1)” value is listed as “significantly inhibited the proliferation of H460 cells in a dose-dependent manner”. Further, the CC50 in series [1] was 100 µM; in series [2], 100 µM; in series [3], 100 µM; in series [4], above 100 µM; in series [5], above 100 µM.
